“And” between values parts separate entries of the source, which are not always exact repeats. Identical values can stand only once. Like-named read-outs stand apart in the source and are kept apart here.
Key:
His10-PGRMC1 [1] = biological target: T1, His10-PGRMC1 (Homo sapiens, UniProt O00264); experiment: PGRMC1 binding assay: [^3H] ligand binding to purified bacterial membranes expressing His10-PGRMC1 (+PGRMC1); details: for Membrane-Associated [^3H] Ligand / Kd / Q1 / Q2: +PGRMC1 membranes; for Membrane-Associated [^3H] Ligand, Specific: Specific (+PGRMC1 minus −PGRMC1); for saturability of specific binding: ligand concentration spanning four orders of magnitude, FIG. 8; for His10-PGRMC1 specific binding with proteolyzed membranes: membranes trypsin-treated prior to ligand binding; for ligand bound at saturation/equilibrium in time course: 37° C; for ligand bound at saturation/equilibrium in time course / time to reach saturation/equilibrium of binding: FIG. 5, time course; for Q1: number of non-specific sites; for Q2: number of specific sites
T1 construct: a product containing the full length coding region of PGMRC1 flanked by Nde1 and BamHI restriction sites; made in house; host or cells: E. coli BL21 (DE3) / BL21 codon plus (RIPL); purified bacterial membranes
T1 sequence (O00264 whole entry): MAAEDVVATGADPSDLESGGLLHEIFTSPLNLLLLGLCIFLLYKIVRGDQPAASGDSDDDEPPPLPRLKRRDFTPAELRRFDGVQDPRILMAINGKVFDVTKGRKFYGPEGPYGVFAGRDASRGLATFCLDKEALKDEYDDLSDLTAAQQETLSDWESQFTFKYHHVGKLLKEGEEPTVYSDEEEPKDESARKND
Procedure: For bacterial expression, BL21 (DE3) cells (Stratagene, LaJolla, Calif.) were transformed with pET-16b:PGRMC1 and plated on LB agar plates containing ampicillin (amp). One to 7 days later, individual colonies were harvested and used to inoculate small volume (5-200 mL) liquid cultures of LB-amp media. Cultures were grown with shaking at 37° C. until early log phase (OD600=0.6). IPTG was added to a final concentration of […] and the cultures were incubated for another 4 hours at 37° C. or overnight at room temperature. His10-PGRMC1 (His10 disclosed as SEQ ID NO: 14) expression was confirmed by SDS-PAGE followed by Coomassie stain and western blot using mouse monoclonal anti-tetra-His (SEQ ID NO: 15) antibody (Qiagen, Valencia, Calif.).
IPTG-induced cells were harvested by centrifugation (5,000 rpm; 5 min) and washed with ice-cold H2O. The pellet was resuspended in 5 mL buffer A (50 mM Tris-HCl pH 7.5, 150 mM NaCl, 0.1% NP40, and 10% glycerol) with 5-10 mg lysozyme, and incubated on ice for 30 min. The cells were then disrupted by three bursts of sonication (45 sec) at high intensity with a 45 sec cooling period between bursts. Soluble material was removed by centrifugation (15,000 rpm, 10 min) and the pellet resuspended in 5 mL buffer A. His10-PGRMC1 (His10 disclosed as SEQ ID NO: 14) was confirmed to be present in purified membranes by SDS-PAGE followed by Coomassie stain and western blot using anti-tetra-His (SEQ ID NO: 15) antibody (Qiagen). Total protein in the His10-PGRMC1 (His10 disclosed as SEQ ID NO: 14) transformed and untransformed purified membranes was determined by the Bradford method and membranes were normalized to 10 μg/μL total protein (diluted with buffer A). Purified membranes were then aliquoted and stored frozen until use.
The standard 10 μL binding reaction contained 10 μp purified membranes (total protein) and 10 μM [^3H] progesterone or [^3H] cholesterol (3,000-5,000 cpm) in buffer A: 20% ethanol. Stock solutions (100 μM) of [^3H] cholesterol and [^3H] progesterone containing ˜4×10^4 cpm/μL, were prepared in 95% ethanol. Reactions were prepared in clear 2.0 mL microcentrifuge tubes on ice. To start the reaction, the microfuge tube was briefly mixed (vortex) and placed at 37° C. Following a 10 to 30 min incubation, the tubes were centrifuged in a microfuge (˜13,000 rpm) for 2 min. The supernatant was carefully removed and the pellet was washed with an additional 10 μL water. After a second round of centrifugation (2 min; 13,000 rpm), the resulting supernatant was combined with the first and the pellet was resuspended in 20 μL H2O, Scintillation fluid (700 μL Wallac Optiflour) was added to each fraction and the fractions were mixed extensively. The fractions were then counted in a multi-well scintillation counter (Wallac Microbeta Triluxmax, Waltham, Mass.) for 30 seconds each. Binding are reported as μ/moles of ligand bound per mg of membrane protein. His10-PGRMC1 (His10 disclosed as SEQ ID NO: 14)-specific binding is reported as the difference in binding between transformed and untransformed bacteria. Experimental deviations from the standard assay conditions are noted in individual figure legends.
In order to better understand PGRMC1's biological function and to study ligand binding, an in vitro binding assay was developed. E. coli BL21 codon plus (RIPL) cells were transformed with a vector encoding PGRMC1 that was epitope tagged with 10 histidine (SEQ ID NO: 14) residues at the NH2-terminus. Untransformed BL21 cells were used as the control. A purification procedure was performed to remove soluble proteins and cell components from the transformed (+PGRMC1) and untransformed (−PGRMC1) bacterial membranes. The resulting purified membranes were confirmed for the presence and absence of His10-PGRMC1 (His10 disclosed as SEQ ID NO: 14) respectively by Coomassie stain and western blot using anti-His antibody. The membranes with [^3H] progesterone or [^3H] cholesterol were then incubated. […]

His10-PGRMC1 [2] = biological target: T1, His10-PGRMC1; experiment: Coupled time-course proteolysis experiment (protease-sensitive vs protease-resistant specific binding); details: trypsin after ligand incubation, FIG. 10
Excerpt: (§1) Since data from the competition assays indicate that progesterone and cholesterol bind to the same site within His10-PGRMC1 (His10 disclosed as SEQ ID NO: 14), the reason for the observation of more cholesterol binding in our assays was examined. There appear to be two plausible explanations: one possibility is that there are more cholesterol-specific binding sites on His10-PGRMC1 (His10 disclosed as SEQ ID NO: 14) that comprise the increase in observed binding; the other is that His10-PGRMC1 (His10 disclosed as SEQ ID NO: 14) is catalyzing the incorporation of cholesterol into the membrane. To distinguish between these possibilities, a coupled time-course proteolysis experiment was performed. In these studies, [^3H] progesterone and [^3H] cholesterol were incubated with membranes ±His10-PGRMC1 (His10 disclosed as SEQ ID NO: 14) for increasing time periods. At the end of the incubation period, the membranes were isolated, washed, and resuspended in a trypsin solution to remove all His10-PGRMC1 (His10 disclosed as SEQ ID NO: 14) protein. In this manner any ligand specifically bound to His10-PGRMC1 (His10 disclosed as SEQ ID NO: 14) would be protease-sensitive and be removed from the membrane fraction. Any ligand incorporated into the membrane or other protected site will be protease-resistant and remain in the membrane fraction. After proteolysis the reactions were separated by centrifugation into protease-resistant (membrane) and protease-sensitive (supernatant) fractions and ligand amount determined. […] Total specific binding of progesterone (FIG. 10A, diamonds) increasing over time and occurring at levels consistent with previous studies was observed. […] It is important to note that this ligand incorporation reaction is specific to bound cholesterol as it was observed that all bound progesterone was protein associated. Collectively our findings describe an important and previously uncharacterized function for PGRMC1 and sterol binding proteins in general, that of catalyzing the incorporation of cholesterol into membranes.

His10-PGRMC1 [3] = experiment: as above; parameters: species or system human; details: trypsin after ligand incubation, FIG. 10
Excerpt: as §1

[4] = Protease + (trypsin before ligand binding)
[5] = two binding site model fit of saturation data, non-specific site, read-out: Kd1
[6] = two binding site model, specific site, read-out: Kd2

Row | Compound | Membrane-Associated [^3H] Ligand (His10-PGRMC1 [1]; [4]) | Membrane-Associated [^3H] Ligand (His10-PGRMC1 [1]; Protease −) | Membrane-Associated [^3H] Ligand, Specific (His10-PGRMC1 [1]; Protease +) | Membrane-Associated [^3H] Ligand, Specific (His10-PGRMC1 [1]; Protease −) | cholesterol binding relative to progesterone binding (His10-PGRMC1 [1]; higher at every time point of the time course) | saturability of specific binding (His10-PGRMC1 [1]) | His10-PGRMC1 specific binding with proteolyzed membranes (His10-PGRMC1 [1]) | Kd of cholesterol relative to progesterone (fold lower) (His10-PGRMC1 [1]; specific site, two binding site model) | ligand bound at saturation/equilibrium in time course (His10-PGRMC1 [1]) | time to reach saturation/equilibrium of binding (His10-PGRMC1 [1]) | Kd (His10-PGRMC1 [1]; [5]) | Q1 (His10-PGRMC1 [1]; two binding site model) | Kd (His10-PGRMC1 [1]; [6]) | protease-sensitive (protein-associated) specific binding (His10-PGRMC1 [2]) | protease-resistant (membrane-associated) specific binding (His10-PGRMC1 [3]) | ligand concentration at half-maximal specific binding (His10-PGRMC1 [1]; saturation experiment, FIG. 8A) | Q2 (His10-PGRMC1 [1]; two binding site model) | Q2 (His10-PGRMC1 [1]; two binding site model, listed as progesterone)
1 | CC(C)CCC[C@@H](C)[C@H]1CC[C@H]2[C@@H]3CC=C4C[C@@H](O)CC[C@]4(C)[C@H]3CC[C@]12C [Cholesterol, cholesterol] | 2.6 ± 0.2 nmoles/mg protein | 5.2 ± 0.3 nmoles/mg protein | 0.0 ± 0.2 nmoles/mg protein | 1.5 ± 0.2 nmoles/mg protein | 2-3 fold | did not appear to be saturable | complete loss | 15 fold | ~2 nmoles/mg protein | approximately the same rate as progesterone | 1000 µM | 9.6 × 10^9 Sites | 0.00035 µM | decreased over time | increasingly protease-resistant |  |  | 
2 | CC(=O)[C@H]1CC[C@H]2[C@@H]3CCC4=CC(=O)CC[C@]4(C)[C@H]3CC[C@]12C [Progesterone, progesterone] | 1.6 ± 0.3 nmoles/mg protein | 3.1 ± 0.3 nmoles/mg protein | 0.0 ± 0.1 nmoles/mg protein | 0.7 ± 0.2 nmoles/mg protein |  | appeared to be saturable | complete loss |  | approximately 0.5 nmoles/mg protein | 15 to 30 min | 1000 µM | 8.0 × 10^9 Sites | 0.0055 µM and 0.00554 µM | essentially all | virtually no | approximately 50 μM | 19,260 Sites | approximately 20,000 Sites

Reference: patent US8187821B2, “Compositions and methods for the modulation of PGRMC1” (University of Utah Research Foundation, priority 2008, dated 2012)
